Measurements published in paper PMC10779950, “Binding Free Energy Calculation Based on the Fragment Molecular Orbital Method and Its Application in Designing Novel SHP-2 Allosteric Inhibitors” (International Journal of Molecular Sciences, 2024).

How the values were obtained:
SHP-2 = SHP-2 ligand set; experimental binding free energy; ref Schrödinger FEP+ benchmark; cited from earlier work
SHP2^WT (1–593) = biological target: T1, SHP2^WT (1–593) (Homo sapiens, UniProt Q06124); experiment: SHP-2 prompt fluorescence phosphatase assay (DiFMUP), SHP2^WT; type: biochemical; settings: for IC50: SHP2^WT, DiFMUP substrate, averages of three independent experiments, read-out: SHP-2 IC50; for ΔGexp: converted from IC50 with ΔGexp ≈ kBTlog IC50
T1 construct: made in house; host or cells: E. coli BL21 Star (DE3), pET30 vector
T1 sequence (Q06124 1-593): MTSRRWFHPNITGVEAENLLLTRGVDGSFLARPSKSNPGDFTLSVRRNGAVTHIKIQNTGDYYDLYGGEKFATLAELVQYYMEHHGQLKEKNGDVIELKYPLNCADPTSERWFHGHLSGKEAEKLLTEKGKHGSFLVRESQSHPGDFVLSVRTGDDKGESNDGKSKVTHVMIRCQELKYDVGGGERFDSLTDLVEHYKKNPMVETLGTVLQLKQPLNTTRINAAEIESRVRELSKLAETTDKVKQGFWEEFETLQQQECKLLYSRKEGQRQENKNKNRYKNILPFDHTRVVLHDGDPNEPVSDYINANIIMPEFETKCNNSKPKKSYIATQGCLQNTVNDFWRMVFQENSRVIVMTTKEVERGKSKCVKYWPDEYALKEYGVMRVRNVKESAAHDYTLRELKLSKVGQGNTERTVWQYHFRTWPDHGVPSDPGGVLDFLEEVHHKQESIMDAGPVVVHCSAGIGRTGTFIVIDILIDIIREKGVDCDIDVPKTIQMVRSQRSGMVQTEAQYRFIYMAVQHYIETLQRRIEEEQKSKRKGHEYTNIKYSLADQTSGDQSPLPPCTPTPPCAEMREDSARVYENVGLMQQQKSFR
Method: (§1) Briefly, the constructs were transformed into BL21 Star^TM (DE3) cells and cultured at 37 °C for 3~4 h. Subsequently, the cells with high expression of SHP2 protein were harvested after being induced by IPTG and grown overnight at 18 °C. Cell pellets were resuspended in lysis buffer (25 mM imidazole, 50 mM Tris−HCl, 500 mM NaCl, 2.5 mM MgCl2, 1 mM tris(2-carboxyethyl)phosphine (TCEP), 1 μg/mL DNase1, and complete EDTA-free protease inhibitor) and lysed using Low Temperature Ultrahigh Pressure Continuous Flow Cell Disrupter (JNBIO), followed by ultracentrifugation. The supernatant was collected. Then, the SHP2 was purified from the collected supernatant by using HisTrap HP chelation column, TEV protease, and HiTrap Q FastFlow column.
(§2) Then, the mixture was then incubated at 25 °C for 60 min. To initiate the reaction, the surrogate substrate DiFMUP (Invitrogen, cat. no. D6567, Shuzhou, China, 200 μM) was added and incubated at 25 °C for another 30 min. […] Fluorescence signal was detected using a microplate reader (Bio-Tek, Shanghai, China, Synergy2) at Ex/Em = 340/450 nm. Using control-based normalization, normalized IC50 regression curves were fitted to inhibitor dose response curves.

THR-β = experiment: Experimental THR-β activity of agonists taken from Hu et al.; type: biochemical; settings: Table S4, converted from the experimental value
Text: In the initial phase of our investigation, we conducted a retrospective evaluation of FMOScore’s performance concerning thyroid hormone receptor β (THR-β) agonists, using a set of 18 compounds taken from the work of Hu et al. [65]

c-Met [1] = test system: c-Met; set-up: method as in earlier work; settings: Schrödinger FEP+ benchmark; cited from earlier work
c-Met [2] = test system: c-Met; set-up: method as in earlier work; settings: FEP+ predicted ΔG from the benchmark; cited from earlier work
SYK [3] = settings: experimental binding free energy, ref Schrödinger FEP+ benchmark; cited from earlier work
SYK [4] = test system: SYK; set-up: method as in Schrödinger FEP+ benchmark; settings: FEP+ predicted binding free energy, ref Schrödinger FEP+ benchmark; cited from earlier work
TNKS2 [5] = settings: experimental binding free energy, ref Schrödinger FEP+ benchmark; cited from earlier work
TNKS2 [6] = test system: TNKS2; set-up: method as in Schrödinger FEP+ benchmark; settings: FEP+ predicted binding free energy, ref Schrödinger FEP+ benchmark; cited from earlier work
SHP2^PTP (237–529) = biological target: T2, SHP2^PTP (237–529) (Homo sapiens, UniProt Q06124); experiment: SHP-2 prompt fluorescence phosphatase assay (DiFMUP), SHP2^PTP; type: biochemical; settings: catalytic PTP domain construct
T2 construct: made in house; host or cells: E. coli BL21 Star (DE3), pET30 vector
T2 sequence (Q06124 237-529): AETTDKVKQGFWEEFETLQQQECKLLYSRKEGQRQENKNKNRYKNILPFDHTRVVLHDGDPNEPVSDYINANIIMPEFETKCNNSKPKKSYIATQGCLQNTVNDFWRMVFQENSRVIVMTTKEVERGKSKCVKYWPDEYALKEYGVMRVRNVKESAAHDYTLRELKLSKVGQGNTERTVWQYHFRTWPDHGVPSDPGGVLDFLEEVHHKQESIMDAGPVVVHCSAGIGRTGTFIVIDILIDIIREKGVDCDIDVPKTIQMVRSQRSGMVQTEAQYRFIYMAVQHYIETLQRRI
Method: as §1, §2

HIF-2α = settings: experimental binding free energy, ref Schrödinger FEP+ benchmark; cited from earlier work

O=[N+]([O-])c1cc(Br)cnc1Sc1cccc(Cl)c1Cl [Compound S4]
Exp. ΔG (SHP-2): -5.82 kcal/mol

CC1(N)CCN(c2cnc(-c3ccnc(Cl)c3Cl)c(N)c2)CC1 [Compound 6, 5-(4-amino-4-methylpiperidin-1-yl)-2′,3′-dichloro-[2,4′-bipyridin]-3-amine]
IC50 (SHP2^WT (1–593)): 10.7 ± 0.92 µM
ΔGexp (SHP2^WT (1–593)): -6.780 kcal/mol
ΔGexp (THR-β): -10.257 kcal/mol
Exp. ΔG (c-Met [1]): -12.28 kcal/mol
FEP (c-Met [2]): -12.22 kcal/mol
Exp. ΔG (SYK [3]): -11.69 kcal/mol
FEP (SYK [4]): -9.59 kcal/mol

CC1(N)CCN(c2cnc(Sc3cccc(Cl)c3Cl)c(N)c2)CC1 [Compound 7, 5-(4-amino-4-methylpiperidin-1-yl)-2-((2,3-dichlorophenyl)thio)pyridin-3-amine]
IC50 (SHP2^WT (1–593)): 11.3 ± 1.19 µM
ΔGexp (SHP2^WT (1–593)): -6.747 kcal/mol
ΔGexp (THR-β): -7.406 kcal/mol
Exp. ΔG (c-Met [1]): -8.73 kcal/mol
FEP (c-Met [2]): -9.19 kcal/mol
Exp. ΔG (SYK [3]): -10.79 kcal/mol
FEP (SYK [4]): -10.29 kcal/mol
Exp. ΔG (TNKS2 [5]): -8.4 kcal/mol
FEP (TNKS2 [6]): -9.01 kcal/mol

Nc1cc(NC2CCNCC2)cnc1-c1cccc(Cl)c1Cl [Compound 4, 2-(2,3-dichlorophenyl)-N5-(piperidin-4-yl) pyridine-3,5-diamine]
IC50 (SHP2^WT (1–593)): 23.5 ± 2.86 µM
ΔGexp (SHP2^WT (1–593)): -6.311 kcal/mol
fold reduced inhibition on morphing the piperazine ring (relative to compound 1) (SHP2^WT (1–593); ratio of IC50): 15 fold
ΔGexp (THR-β): -5.453 kcal/mol
Exp. ΔG (c-Met [1]): -8.9 kcal/mol
FEP (c-Met [2]): -7.41 kcal/mol
Exp. ΔG (SYK [3]): -11.36 kcal/mol
FEP (SYK [4]): -9.49 kcal/mol

CC1(N)CCN(c2cnc(-c3cccc(Cl)c3Cl)c(N)c2)CC1 [Compound 1, 5-(4-amino-4-methylpiperidin-1-yl)-2-(2,3-dichlorophenyl) pyridin-3-amine]
inhibitory activity against SHP-2 (in words) (SHP2^WT (1–593); Figure S4, DIFMUP substrate, mean ± SD (n = 3)): potent inhibitory activity
IC50 (SHP2^WT (1–593)): 1.49 ± 0.024 µM
ΔGexp (SHP2^WT (1–593)): -7.943 kcal/mol
fold decrease of biochemical inhibition compared to SHP099 (SHP2^WT (1–593); ratio of IC50): 16 fold
IC50 (SHP2^PTP (237–529)): > 100 µM
ΔGexp (THR-β): -8.186 kcal/mol
Exp. ΔG (c-Met [1]): -9.14 kcal/mol
FEP (c-Met [2]): -9.88 kcal/mol
Exp. ΔG (HIF-2α): -11.32 kcal/mol
Exp. ΔG (SYK [3]): -12.39 kcal/mol
FEP (SYK [4]): -12.21 kcal/mol
